Results published in patent US6861430B2, “β-carboline derivatives and its pharmaceutical use against depression and anxiety” (Novartis AG, priority 2001, dated 2005).

Tests used:
passive avoidance test = type: in vivo; conditions: 0.1, 1 or 10 mg/kg p.o.
rats = assay: social exploration test / social contact assay; type: in vivo; conditions: rat
Procedure: In the social exploration test at doses of about 0.01 to 10 mg/kg p.o., the agents of the invention increase social contact time of rats similarly to classical anxiolytics such as benzodiazepines e.g. chlordiazepoxide or NK1 antagonists (Vassout A, Veenstra S, Hauser K, Ofner S, Brugger F, Schilling W, Gentsch C, Regulatory Peptides. 2000; 96, 7-16).
(§1) The preferred agent of the invention for the above-mentioned indications is the (R)-1,1-bis-ethoxymethyl-3-(4-phenyl-1H-imidazol-2-yl)-2,3,4,9-tetrahydro-1H-β-carboline, in free base or acid addition salt form. […] In the forced swim test (Porsolt), the immobility time is shortened by 30-45% on subchronic administration of 12.5-25 mg/kg p.o.

[1] = molecular target: somatostatin sst3 receptors (Homo sapiens, UniProt P32745); assay: radioligand binding, somatostatin receptor expressing cell cultures; conditions: sst3 versus other somatostatin receptors
Chain of somatostatin sst3 receptors (P32745 whole entry): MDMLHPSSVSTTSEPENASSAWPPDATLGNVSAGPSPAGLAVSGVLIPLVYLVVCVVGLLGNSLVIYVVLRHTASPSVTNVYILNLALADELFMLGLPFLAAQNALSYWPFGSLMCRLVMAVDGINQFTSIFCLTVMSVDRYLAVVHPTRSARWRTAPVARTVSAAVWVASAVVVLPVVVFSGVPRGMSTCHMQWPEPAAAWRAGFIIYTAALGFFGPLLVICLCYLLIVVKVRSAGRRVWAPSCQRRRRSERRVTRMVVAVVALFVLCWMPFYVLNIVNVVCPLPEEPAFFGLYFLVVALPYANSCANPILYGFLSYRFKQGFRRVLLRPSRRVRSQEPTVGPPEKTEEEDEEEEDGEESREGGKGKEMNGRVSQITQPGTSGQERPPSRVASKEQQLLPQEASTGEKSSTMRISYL
Excerpt: (§2) In particular the agents of the invention show high affinity to somatostatin receptors. More particularly they are selective antagonists at somatostatin sst3 receptors, previously called SSTR-3 receptors (see Hoyer et al., TiPS, 1995, 16; 86-88), as determined in radioligand binding and second messenger studies [see for example K. Kaupmann et al., FEBS Letts. 1993, 331:53-59.

mouse sst3 receptor = mouse sst3 receptor (Mus musculus, UniProt P30935); assay: radioligand binding, mouse sst3 receptor; conditions: read-out: pKd, mouse receptor (converted)
Chain of mouse sst3 receptor (P30935 whole entry): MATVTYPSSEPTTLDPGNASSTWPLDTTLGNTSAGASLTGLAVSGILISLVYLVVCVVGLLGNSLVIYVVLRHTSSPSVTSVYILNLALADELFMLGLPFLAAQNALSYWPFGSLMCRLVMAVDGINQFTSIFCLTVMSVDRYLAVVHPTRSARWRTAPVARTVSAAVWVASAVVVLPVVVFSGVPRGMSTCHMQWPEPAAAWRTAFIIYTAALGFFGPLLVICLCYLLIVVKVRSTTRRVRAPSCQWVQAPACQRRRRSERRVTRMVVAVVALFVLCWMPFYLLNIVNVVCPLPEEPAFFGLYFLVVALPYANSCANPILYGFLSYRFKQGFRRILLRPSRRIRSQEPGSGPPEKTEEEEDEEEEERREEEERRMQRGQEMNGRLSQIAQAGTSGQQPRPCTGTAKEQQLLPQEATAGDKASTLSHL
Excerpt: as §2, §1

human sst3 receptor = human sst3 receptor (Homo sapiens, UniProt P32745); assay: radioligand binding, human sst3 receptor; conditions: read-out: pKd, human receptor (converted)
Chain of human sst3 receptor (P32745 whole entry): as the sequence (P32745 whole entry) above
Excerpt: as §2, §1

rat = assay: forced swim test (Porsolt), rat; type: in vivo; conditions: subchronic administration of 12.5-25 mg/kg p.o.
Procedure: The agents of the invention show antidepressant-like effects in the rat, similar to desipramine or fluoxetine when given subchronically (10-30 mg/kg, p.o.) in the forced swim test. (Porsolt, R. D. et al. Nature. 1977: 266, 730-732) and also produce antidepressant-like effects in the mouse, similar to fluoxetine (Porsolt, R. D. et al. Nature 1977: 266, 730-732). Finally, these agents, when given once per day for 14 days, (0.3-30 mg/kg p.o.), reverse both the characteristic hyper-reactivity of bulbectomised rats when first placed in a novel and stressful environment and the total activity, similar to imipramine and desipramine. (Song C and Leonard BE. Hum. Psychopharmacol 1994; 9: 135-146).
as §1

mice = assay: social recognition test; type: in vivo; conditions: doses between 0.03 and 3 mg/kg p.o.
Procedure: The agents of the invention at 0.03-3 mg/kg p.o. enhance leaming/mlmory in mice as measured in the social recognition test similar to oxiracetam or GABAB blockers (Thor D. H. and Holloway W. R. J. Comp. Physiol. Psychol. 1982; 96: 1000-1006. Mondadori C. et al., Behavioural Brain Research 1996, 77: 227-229).
as §1

Compound	impairment of memory formation in passive avoidance test (passive avoidance test)	dose of maximal amplitude, social contact assay (rats)	duration of social contacts of the intruder towards the resident (rats; 0.01-10 mg/kg p.o.)	selectivity over other somatostatin receptors [1]	Kd (mouse sst3 receptor)	Kd (human sst3 receptor)	shortening of immobility time (rat)	social recognition of a familiar partner (mice)	melting point
CCOCC1(COCC)N[C@@H](c2nc(-c3ccccc3)c[nH]2)Cc2c1[nH]c1ccccc21 [Example 10, (R)-1,1-bis-ethoxymethyl-3-(4-phenyl-1H-imidazol-2-yl)-2,3,4,9-tetrahydro-1H-β-carboline]	no impairment of memory formation	0.3-3 mg/kg p.o.	increases dose dependently the duration of social contacts	more than 400 fold	5.01 nM	2.04 nM	30-45%	significant increase of social recognition	–
CCCCC1(CCCC)N[C@@H](c2nc(-c3ccncc3)c[nH]2)Cc2c1[nH]c1ccccc21 [Example 1, (R)-1,1-Dibutyl-3-(4-pyridin-4-yl-1H-imidazol-2-yl)-2,3,4,9-tetrahydro-1H-β-carboline]	–	–	–	–	–	–	–	–	200 to 205 °C
